Reference: patent US20040037775A1, “Leukocyte internalized peptide-drug conjugates” (priority 2000, published 2004)
“Also recorded” adds a separate entry of the source. Starred links: 1 amine or outer side, 2 acyl side, 3 side chain; linkers in the order of their positions; H or OH if unused. Positions of bridges follow the written chain, without caps; N, C: chain ends. Non-standard residues stand in square brackets, D forms with d. Residues, ends and D or L forms follow the SMILES beside them. *: point of attachment. DAMPA = CN(Cc1cnc2nc(N)nc(N)c2n1)c1ccc(C(=O)*)cc1; γGlu = O=C(O)[C@H](CCC(=O)[*:2])N[*:1]; Pen = CC(C)(S)[C@H](N)C(=O)O

Legend:
[1] = tested on: Molt-3 T-cells/Calu-3 lung epithelial monolayers; test: heterotypic adhesion of Molt-3 T-cells to Calu-3 lung epithelial monolayers; type: cell-based, human; settings: for effect on adherence of Molt-3 T-cells to Calu-3 monolayers: IFN-γ-induced Calu-3, PMA-activated Molt-3
Procedure: Molt-3, Caco-2 and Calu-3 cell lines were obtained from the American Type Culture Collection (Rockville, Md.). Molt-3 and Caco-2 cells were maintained and grown using known methods. Briefly, the Caco-2 cell-line was grown as monolayers in Dulbecco's modified Eagle's medium (DMEM) with 25 mM glucose containing 10% FBS, 1% nonessential amino acids, 1 mM Na-pyruvate, 1% L-glutamine and […] of penicillin/streptomycin. Cells were grown in 75-cm^2 tissue culture flasks (Falcon) for maintenance purposes and in a 48-well cell culture cluster (Costar) for heterotypic-adhesion experiments. Before confluency was reached, Caco-2 cells were induced with 100 U/mL IFN-γ for 24 h to up-regulate the ICAM-1 expression. Calu-3, a lung epithelial cell line, was maintained in a 1:1 mixture of Ham's F12:DMEM containing 10% FBS and 100 μg/mL penicillin/streptomycin. Upon reaching 90% confluency (approximately 4-5 days), cells were subcultured at a 1:2 split ratio using 0.25% trypsin/0.1% EDTA. Calu-3 cells were induced with 500 U/mL IFN-γ for 48 h to up-regulate the ICAM-1 expression. All cell lines were grown in a 95% humidified/5% CO2 atmosphere at 37° C.
Heterotypic Adhesion Experiments with LFA-1 derived peptides—Two heterotypic cell adhesion systems were used in this work. The adhesion between Molt-3 T-cells/Calu-3 lung epithelial monolayers was used to assess the inhibitory activities of cLAB.L and cLAB.2L; Molt-3 T-cells/Caco-2 colon epithelial monolayers system was for cLAB.L and its derivatives. Briefly, Calu-3 or Caco-2 cell monolayers were pretreated with peptide solution prior to the adherence of fluorescence-labeled Molt-3 cells. […] Soluble lysates were transferred to 96-well (clear-bottom, black-sided) plates (Costar) for reading in a microplate fluorescence analyzer (Bio-Tek FL600) to give relative fluorescence (FL), i.e., the reading of fluorescence intensity of adherent corrected with the reading of cell monolayers only. Data were presented as the percentage of T-cell adherence calculated as follows: […]

Molt-3 T-cells [2] = test: cells; type: cell-based, human; settings: 72 h
Procedure: (§1) The cytotoxicity of MTX-peptide conjugates was evaluated in different cell lines, lincluding Molt-3 and L1210 T-cells, and KB epithelial cells. […] After 72 h of growth, the relative numbers of viable cells were determined according to the manufacture's protocols for measuring cytotoxicity using a Dojindo Cytotoxicity Assay Cell counting Kit-8 (CCK-8). To measure the cell viability, 10 μL of CCK-8 was added to each well and the plate was incubated for 4 h. After incubation, the absorbance at 450 nm was measured using a UV plate reader. Cell growth in the presence of different drug concentrations was calculated relative to the value obtained in the absence of the drug. […] Serial dilutions of compounds were prepared in un-supplemented medium, and 110 μL of drug solution was aliquoted in duplicate into 900 μL cell suspensions. Control flasks were treated with 110 μL of un-supplemented medium. Cells were incubated under standard conditions for 48 h, sufficient to allow control cells to divide approximately four times. Growth inhibition was determined by counting the cells on a Z2 model Coulter Counter (Coulter Electronics Ltd, Luton, Beds, UK). The IC50 values were calculated using Graphpad Prism software (Graphpad Software, San Diego, Calif.). KB MTT Assay: KB cells were seeded in Falcons® 96 well plates (Becton-Dickinson Labware Europe, France) at a density of 1,500 cells/well in a volume of 0.18 mL culture medium and incubated under standard culture conditions for 24 h after seeding to allow entry into the exponential phase of cell growth. […] In each assay condition, control cells were treated with 20 μL of un-supplemented medium instead of drug. Cells were incubated for 96 h to allow control cells to divide approximately four times before cell viability was determined by MTT assay.

[3] = tested on: L1210 mouse leukemia cells; test: cells; type: cell-based; settings: 48 h
Procedure: as §1

Molt-3 T-cells [4] = test: propidium iodide assay of growth and cytotoxicity in Molt-3 T-cells; type: cell-based, human; settings: tested 0.1-500 μM
[5] = tested on: LFA-1 receptor on Molt-3 T-cells; test: protection against MTX-cIBR toxicity in Molt-3 T-cells (LFA-1 mediated internalization, MTT); type: cell-based, human; settings: similar experiment
Procedure: As a control, some cells were left untreated. […] As a reference for minimal metabolic activity, 10 mM of the succinate dehydrogenase inhibitor iodoacetamide (IAA) was added to untreated wells. […] The tubes were spun to pellet the cells and the supernatant was carefully removed. The formazan crystals were dissolved in 200 μL of 0.04 N HCl in isopropanol; the tubes were sonicated for 5 min to completely dissolve crystals and then re-centrifuged to pelletize the cell debris. 100 μL aliquots of the supernatant solutions were removed and transferred to a 96-well microtiter plate. The optical density of the solution was measured at 570 nm using a UV plate reader.

[6] = tested on: dihydrofolate reductase enzyme (DHFR); test: DHFR inhibition assay (spectrophotometric NADPH loss, Dixon plots); type: biochemical
Procedure: Into a 2.0 mL cuvette, a 1.0 mL solution of 0.11 mM β-NADPH and 33 μL of 2.3 mM DHFA were aliquoted and allowed to equilibrate. […] To begin the assay, 33 μL of DHFR (0.12-0.25 unit/mL with 0.1% BSA) was added to the reaction mixture. The absorbance of the reaction mixture was then recorded continuously for 5 min at 340 nm and the enzyme activity was determined by the rate of NADPH loss. Enzyme activity was determined for three different fixed concentrations of substrate (0.19, 1.9 and 10.0 mM DHFA).

KB epithelial cells = test: KB MTT assay (96 h); type: cell-based, human
Procedure: Human KB epithelial l cells: The human KB epithelial cell line was a gift from Dr Gerrit Jansen (University Free Hospital, Amsterdam, Netherlands) and was developed to overexpress the membrane folate binding protein (mFBP). Cells were cultured in RPMI 1640 medium without folic acid and supplemented with 10% heat inactivated dialyzed FCS (50 mL volume), 0.2 mL of 50 μg/mL gentamicin, 1 mL of 50 μg/mL amphotericin B, and 5 mL of 200 mM L-glutamine. The folate source, 20 nM (R,S)-LV, was added to supply cells with adequate growth conditions.
The cytotoxicity of MTX-peptide conjugates was evaluated in different cell lines, lincluding Molt-3 and L1210 T-cells, and KB epithelial cells. […] After 72 h of growth, the relative numbers of viable cells were determined according to the manufacture's protocols for measuring cytotoxicity using a Dojindo Cytotoxicity Assay Cell counting Kit-8 (CCK-8). To measure the cell viability, 10 μL of CCK-8 was added to each well and the plate was incubated for 4 h. After incubation, the absorbance at 450 nm was measured using a UV plate reader. Cell growth in the presence of different drug concentrations was calculated relative to the value obtained in the absence of the drug. […] Growth inhibition was determined by counting the cells on a Z2 model Coulter Counter (Coulter Electronics Ltd, Luton, Beds, UK). The IC50 values were calculated using Graphpad Prism software (Graphpad Software, San Diego, Calif.). […] Cells were incubated for 96 h to allow control cells to divide approximately four times before cell viability was determined by MTT assay.
The number of viable cells after a 96-h incubation was determined by assessing their ability to reduce MTT ([…]). […] The absorbance of the solution in each well was measured at 540 nm on a MCC/340 model Titertak Multiscan® plate reader (Labsystems/Flow Laboratories, Oxfordshire, UK). The results were analyzed using Ascent Research software v.2.1 (Labsystems, UK).

With “Xaa-Gly Val Asp Val Asp Glp Asp Gly Glu Thr-Cys [cLAB.2L, cyclic domain V peptide of LFA-1]” the “effect on adherence of Molt-3 T-cells to Calu-3 monolayers” value [1] was “did not interfere; also recorded: no significant effect”.
For `CC(C)[C@H](NC(=O)[C@H](CO)NC(=O)CNC(=O)CNC(=O)[C@H](CCCNC(=N)N)NC(=O)[C@@H]1CCCN1C(=O)CC[C@H](NC(=O)c1ccc(N(C)Cc2cnc3nc(N)nc(N)c3n2)cc1)C(=O)O)C(N)=O` [MTX-PRGGSV] ({DAMPA-γGlu}-PRGGSV-NH2), the IC50 (Molt-3 T-cells [2]) was 5.13 ± 0.6 µM and the IC50 [3] was 1.6 ± 0.4 µM.
With cyclol,12-PenITDGEATDSGC [cLAB.L] the “effect on adherence of Molt-3 T-cells to Calu-3 monolayers” value [1] was “significantly reduces”, the “inhibition of heterotypic cell adhesion” value ([1]; IFN-γ-induced Calu-3 monolayers, BCECF labeled Molt-3 cells) was “about 40%” and the “concentration at which total growth inhibition emerged in Molt-3 cells” value (Molt-3 T-cells [4]) was 100 µM.
In the case of `CC[C@H](C)[C@H](NC(=O)[C@@H](NC(=O)CC[C@H](NC(=O)c1ccc(N(C)Cc2cnc3nc(N)nc(N)c3n2)cc1)C(=O)O)C(C)C)C(=O)N[C@@H](CC(C)C)C(=O)N1CCC[C@H]1C(=O)N[C@@H](CCCNC(=N)N)C(=O)NCC(N)=O` [MTX-VILPRG] ({DAMPA-γGlu}-VILPRG-NH2), the IC50 (Molt-3 T-cells [2]) is reported as 9.12 ± 0.2 µM and the IC50 [3] is reported as 0.7 ± 0.3 µM.
cyclol,12-PenDLSTSLDDLRC [cLBE.L] was tested, and the “concentration at which total growth inhibition emerged in Molt-3 cells” value (Molt-3 T-cells [4]) was 100 µM.
With `CC(C)C[C@@H]1NC(=O)[C@H](C(C)C)NC(=O)[C@H](CO)NC(=O)CNC(=O)CNC(=O)[C@H](CCCNC(=N)N)NC(=O)[C@@H]2CCCN2C(=O)[C@@H](N)C(C)(C)SSC[C@@H](C(=O)O)NC(=O)CNC(=O)[C@H]([C@@H](C)O)NC(=O)[C@H](C(C)C)NC1=O` [cIBR peptide] (H-[Pen]PRGGSVLVTGC-OH; disulfide 1-12) the “effect on cytotoxicity of MTX-cIBR” value [5] was “reduced the cytotoxicity of MTX-cIBR in a concentration dependent manner”.
In the case of `CC[C@H](C)[C@@H]1NC(=O)[C@H](C(C)C)NC(=O)[C@H](CCCCN)NC(=O)[C@H](CO)NC(=O)[C@@H]2CCCN2C(=O)[C@H](CO)NC(=O)[C@H](C(C)C)NC(=O)[C@H](CO)NC(=O)[C@H]([C@@H](C)O)NC(=O)[C@H](CCC(N)=O)NC(=O)[C@@H](NC(=O)CC[C@H](NC(=O)c2ccc(N(C)Cc3cnc4nc(N)nc(N)c4n3)cc2)C(=O)O)C(C)(C)SSC[C@@H](C(=O)O)NC1=O` [MTX-cIBL] ({DAMPA-γGlu}-[Pen]QTSVSPSKVIC-OH; disulfide 1-12), the “Km relative to that of MTX” value [6] is reported as “approximately 4 fold”, the Ymax ([6]; from Dixon plots) is reported as 4.26 ± 0.07 × 10^−4 and the IC50 (Molt-3 T-cells [2]) is reported as 2.68 ± 0.2 µM. For the same molecule, the IC50 [3] was 9.14 ± 1 µM and the IC50 (KB epithelial cells) was > 10 µM.
